Reference: patent publication US9957332B2, “Compositions and methods for treating cocaine-related disorders” (University of Cincinnati, priority 2006, dated 2018)

What was measured:
[1] = Radioligand binding assay using antibody and [3H]-cocaine; conditions: [3H]-cocaine radioligand binding; read-out: dissociation constant (Kd) for cocaine
Source text: (§1) In another embodiment, an antibody binds cocaine or a derivative thereof. […] Other examples of cocaine derivatives include: (−) cocaine; cocaine propyl ester; RTI-128; RTI-66; RTI-160; RTI-192; m-hydroxycocaine; WIN 35,065-2; WIN 35,428; RTI-31; RTI-32; RTI-55; RTI-111; m-hydroxybenzoylecgonine; p-hydroxybenzoylecgonine; RTI-113; tropine; benztropine; 4′,4″-difluoro-3α-diphenylmethoxytropane; hyoscyamine-N-oxide; methylanisotropine; tropisetronmethiodide; anisodine; scopotamine; scopotamine-N-oxide; methylscopolamine; N-butylscopolamine; (−) pseudococaine; (+) cocaine; norcaine; benzoylnorecgonine; (+) pseudococaine; ecgonidine; exo-6-hydroxytropinone; and methylcocaethylene.

[2] = Effect of 2E2 on cocaine metabolite concentrations in plasma and brain; assay type: in vivo; conditions: mice
[3] = 2E2 in vivo pharmacokinetics, blood mAb by ELISA; conditions: mice
Description: Then at varying times, to obtain blood samples for mAb quantification, the mice are anesthetized using isoflurane and a sterile 27-gauge hypodermic needle or, alternatively, a sterile scalpel blade is used to puncture or make a small cut in a tail vein and 10 μl of blood is collected using a heparinized capillary pipette tip. The blood is immediately placed in a 1.5 ml polypropylene microcentrifuge tube containing 40 μl of 0.1 M sodium citrate/0.1% sodium azide pH 4.75. These samples are then rapidly placed on ice and then stored at 4° C. until use.
Briefly, the conjugate benzoylecgonine-ovalbumin (3 μg/ml, 100 μl/well) in 1 mM EGTA pH 7.4 is adsorbed onto PVC 96-well microtiter plates for 1 hr. The plates are then washed 3 times with, and all wells exposed for 10 min to, 0.5% BSA in TBS (10 mM Tris, 140 mM NaCl and 0.02% NaN3, pH 6.9) in order to block non-specific protein binding. The second layer, 100 μl/well of the blood samples diluted (1:500) into BSA-TBS, is added and the sample is incubated for 2 hr. […] The plates are washed with a Solution A, containing 0.5% BSA, 10 mM sodium phosphate, 145 mM NaCl, 1.5 mM MgCl2, 0.05% triton X-100 and 0.02% NaN3, pH 7.2. Then 50 μl/well of affinity-purified biotinylated goat anti-human IgG diluted 1:500 in Solution A is added and incubated for 1 hr. After washing, 50 μl/well of streptavidin-alkaline phosphatase, diluted (1:200) in Solution A, is added, incubated for 1 hr and removed. Then 50 μl/well of the colorimetric reaction mixture, comprised of the substrate para-nitrophenylphosphate (1 mg/ml) in substrate buffer (50 mM Na2CO3, 50 mM NaHCO3 1 mM MgCl2 at pH 9.8), is added. After 6-8 min the reaction is stopped with 1M sodium hydroxide (50 μl/well). […] The reaction endpoint is measured with an ELISA reader at a wavelength of 405 nm. […]
The program provides Akaike Information Criterion (AIC) and Schwartz Bayesian Criterion (SBC) measures of “goodness of fit” of the data to the one or two compartment pharmacokinetic models that are used. Data are first analyzed according to a single compartment pharmacokinetic model.

[4] = Effect of infused mAbs on plasma and brain cocaine concentrations and pharmacokinetics; assay type: in vivo, mice
[5] = Cocaine pharmacokinetics in plasma and brain (GC/MS), absence of mAb; conditions: for mean metabolite concentration in brain / mean metabolite concentration in plasma: 5 min after cocaine injection
Description: Jugular vein catheterized male Swiss-Webster mice (22-28 g at the start of the studies) are purchased. Mice are housed individually with free access to food and water and kept on a 12 h light/dark cycle.
The antibody (3-5 mg/ml) in phosphate-buffered saline (PBS) or vehicle (PBS) is infused at a rate of approximately 0.35 ml/min for up to two min, depending on the antibody concentration and the body weight of the animal, with the animal held under mild restraint. One hour after completion of the infusion of mAb, cocaine HCl (0.56 mg/kg) plus heparin (400 units/kg) is injected intravenously through the same catheter at a volume of 4.0 ml/kg body weight. At most sampling times, sodium pentobarbital (45 mg/kg, i.p) is administered three minutes prior to sacrificing the animal. For the 0.75 min time point the cocaine is injected into anesthetized mice. At the designated times after the injection of cocaine, anesthetized mice are sacrificed by decapitation and trunk blood (typically 0.8-1.2 ml) is collected in a 1.5 ml polypropylene microcentrifuge tube containing 11.2 μl heparin (1.0 unit/μl) and NaF (16 mg/0.8 ml of blood) to inhibit, respectively, blood coagulation and enzymatic hydrolysis of cocaine. The blood samples are centrifuged at 5,000×g for 3 min, then the plasma (typically 0.4-0.8 ml) is carefully separated from packed red blood cells, placed into sterile 1.5 ml Eppendorf microcentrifuge tubes, rapidly frozen on dry ice and then stored at −80° C. until analysis.
The whole brain is quickly removed from the decapitated mice, surface blood is blotted away, and the brain is placed in a polypropylene tube, rapidly frozen on dry ice and then stored at −80° C. until analysis. For analysis, brains are weighed and cold deionized, distilled water added to produce a total volume of 1 ml, then homogenized and centrifuged at 13,000 rpm for 45 min at 4° C. The resulting supernatants (0.4-0.6 ml) are collected into sterile polypropylene microcentrifuge tubes and an aliquot (0.05-0.40 ml) is processed for cocaine/metabolite analysis by GC/MS and hemoglobin content. Any remaining sample is stored at −80° C.
In order to determine in vivo concentrations of cocaine and its metabolites BE and EME, following the i.v. injection of cocaine, 100-400 μl samples of heparinized/NaF treated plasma and 400 μl samples of brain homogenates obtained from cocaine-treated animals are added to 2 ml of 0.1 M Na phosphate buffer, pH 6.0. This is followed by the addition of 5% trichloroacetic acid at a volume equal to that of the experimental sample (100-400 μl). These mixtures are shaken for 20 minutes and then centrifuged for 15 min at 7000 rpm, all at room temperature, in order to precipitate the denatured protein. The supernatants are collected and adjusted to pH 5.4 with 10 M NaOH. Then to serve as internal standards for establishing the identification of cocaine and its metabolites as well as for normalization of the recovery of cocaine/metabolites from the mouse samples, 50 μl of a sample containing deuterated (D3) cocaine-D3, BE-D3 and EME-D3 (each at 1 μg/ml) is added to all of the experimental and the standard control samples before their undergoing solid-phase extraction/column elution. Duplicate, standard control tubes (2 ml) are also prepared containing; 0.1 M Na phosphate buffer, 50 μl of the internal standards D3 cocaine/BE/EME (1 μg/ml, each), 200 μl of normal mouse plasma and varying amounts of cocaine (1-500 ng) and used to generate the standard cocaine concentration curves. Similarly, standard concentration curves are also generated for BE and EME.

[6] = molecular target: anti-cocaine antibody (present antibodies); experiment: Competition assays with constant [3H]-cocaine and nonradioactive competitors at the antibody; conditions: competition with [3H]-cocaine at antibody; read-out: binding inhibition constant (Ki)
Source text: as §1

[7] = mice, 5 min after i.v. cocaine, stoichiometric mAb dose

2E2: anti-cocaine mAb with human gamma heavy chain (SEQ ID NO: 2) and murine lambda light chain (SEQ ID NO: 1)
Kd [1]: 4 nM
effect of 2E2 dose on brain EME concentrations [2]: no systematic effect
effect on brain BE concentrations ([2]; 2E2 doses above 40 mg/kg): concomitant decrease
reduction in plasma EME concentrations ([2]; highest dose of 2E2): ~2 fold
increase in plasma BE concentrations ([2]; increasing doses of 2E2, plateau above 40 mg/kg): ~3 fold
elimination t1/2 of 2E2 in blood ([3]; 120 mg/kg i.v. infusion, single compartment model): 8.1 days
initial blood concentration of mAb (mean±SEM) ([3]; 120 mg/kg i.v., 3 minutes after infusion, n=8): 370 ± 17 µg/mL
mean blood concentration of 2E2 ([3]; 120 mg/kg i.v., 24 hours after infusion): 422 ± 21 µg/mL
brain cocaine concentration at highest mAb dose ([4]; mice, 360 mg/kg (3:1 mAb:drug), corrected for residual blood): negligible
increase in plasma cocaine concentrations ([4]; mice, 2E2 12 mg/kg (1:10 mAb:cocaine), 5 min): 5.1 fold
decrease in brain cocaine concentrations ([4]; mice, 2E2 24 mg/kg, 5 min): 35%
peak plasma cocaine concentration, presence vs absence of 2E2 ([4]; mice, 2E2 120 mg/kg): 11.3 fold
t1/2 of cocaine in plasma in the presence of mAb ([4]; mice, 2E2 120 mg/kg (equimolar), single compartment model): 17.1 min
peak plasma cocaine concentration in the presence of 2E2 ([4]; mice, 2E2 120 mg/kg, 45 sec after cocaine […] i.v.): ~1,100 ng/ml
peak brain cocaine concentration in the presence of 2E2 ([4]; mice, 2E2 120 mg/kg, earliest sample time): ~490 ng/g
elimination t1/2 of cocaine in brain in the presence of 2E2 ([4]; mice, 2E2 120 mg/kg, single compartment model): 3.8 min
increase in plasma cocaine concentrations ([4]; mice, 2E2 360 mg/kg (3:1 ratio), 5 min): 46.1 fold
decrease in brain cocaine concentration vs vehicle controls ([4]; mice, 5 min, Table 1): ~5 fold
increase in plasma cocaine concentration vs vehicle controls ([4]; mice, 5 min, Table 1): 29 fold
Change from vehicle (brain cocaine concentration) [4, 7]: −4.8-fold
Change from vehicle (plasma cocaine concentration) [4, 7]: +28.7-fold
Vdss of cocaine in the presence of mAb ([4]; mice, equimolar dose of 2E2): 0.2 L/kg
increase in plasma cocaine AUC ([4]; mouse, in vivo): 26 fold

CN1[C@H]2CC[C@@H]1[C@@H](C(=O)O)[C@@H](OC(=O)c1ccccc1)C2 [benzoylecgonine]
mean metabolite concentration in brain ([5]; mice, absence of 2E2): 16 ng/g
mean metabolite concentration in plasma ([5]; mice, absence of 2E2): 7 ng/mL
Ki [6]: 43 nM

CCOC(=O)[C@@H]1C2CCC(C[C@@H]1OC(=O)c1ccccc1)N2C (stereo partly shown) [cocaethylene]
Ki [6]: 3.4 nM

COC(=O)[C@H]1[C@@H](OC(=O)c2ccccc2)C[C@@H]2CC[C@H]1N2C [cocaine]
half-life ([5]; male, Swiss-Webster, mouse, brain, iv, […], t1/2 for entry (input) of cocaine into the brain, mice, absence of 2E2): 2 min
Vd ([5]; male, Swiss-Webster, mouse, plasma, iv, […]): 6 L/kg
half-life ([5]; male, Swiss-Webster, mouse, plasma, iv, […], plasma distribution half-life (t1/2α) of cocaine, mice, cocaine HCl […] i.v., absence of 2E2, two-compartment model): 1.9 min
half-life ([5]; male, Swiss-Webster, mouse, plasma, iv, […], plasma terminal elimination half-life (t1/2β) of cocaine, mice, cocaine HCl […] i.v., absence of 2E2, two-compartment model): 26.1 min
plasma terminal elimination half-life (t1/2β) of cocaine ([5]; mice, cocaine HCl […] i.v., absence of 2E2, two-compartment model): 26 min
brain t1/2α of cocaine ([5]; mice, i.v., absence of 2E2, two-compartment model): 2.0 min
highest measured brain cocaine concentration ([5]; mice, i.v., at 3 min, absence of 2E2): ~1,500 ng/g
highest plasma cocaine concentration ([5]; mice, i.v., earliest sample time (45 sec), absence of 2E2): ~110 ng/mL
brain t1/2β of cocaine ([5]; mouse, in vivo, iv): 14.5 min

COC(=O)[C@@H]1[C@H]2CC[C@@H](C[C@@H]1O)N2C [ecgonine methyl ester]
mean metabolite concentration in brain ([5]; mice, absence of 2E2): 267 ng/g
mean metabolite concentration in plasma ([5]; mice, absence of 2E2): 25 ng/mL
Ki [6]: 5200 nM

CN1[C@H]2CC[C@@H]1[C@@H](C(=O)O)[C@@H](O)C2 [ecogonine]
Ki [6]: 95000 nM
